Experimental data as given in the CheMixHub viscosity set.
Values joined by “and” are separate entries in the source; they are usually repeats but may differ in a detail not shown here. Equal entries are not always repeated.

Experiment: xn = mol fraction of the nth substance listed

CCC1CCCCC1 + CCCCCCCC(=O)OCC
viscosity [mPa·s], 100 kPa
Details | x1 = 0.1001 | x1 = 0.2 | x1 = 0.3 | x1 = 0.3998 | x1 = 0.5 | x1 = 0.5997 | x1 = 0.7 | x1 = 0.8001 | x1 = 0.9
293.15 K | 1.446 | 1.359 | 1.278 | 1.201 | 1.128 | 1.058 | 0.992 | 0.929 | 0.877
298.15 K | 1.328 | 1.254 | 1.182 | 1.113 | 1.046 | 0.983 | 0.924 | 0.869 | 0.821
303.15 K | 1.224 | 1.156 | 1.09 | 1.03 | 0.971 | 0.916 | 0.862 | 0.812 | 0.768
308.15 K | 1.132 | 1.071 | 1.012 | 0.957 | 0.903 | 0.854 | 0.808 | 0.762 | 0.72
313.15 K | 1.039 | 0.985 | 0.932 | 0.882 | 0.835 | 0.792 | 0.749 | 0.709 | 0.674
318.15 K | 0.977 | 0.927 | 0.879 | 0.833 | 0.79 | 0.748 | 0.71 | 0.672 | 0.64
323.15 K | 0.902 | 0.856 | 0.812 | 0.771 | 0.733 | 0.696 | 0.661 | 0.625 | 0.595

CCC1CCCCC1 + CCCCCCCCCC(=O)OCC
viscosity [mPa·s], 100 kPa
Details | x1 = 0.1001 | x1 = 0.1999 | x1 = 0.3001 | x1 = 0.4 | x1 = 0.5002 | x1 = 0.5998 | x1 = 0.7 | x1 = 0.8 | x1 = 0.9001
293.15 K | 2.153 | 1.979 | 1.807 | 1.642 | 1.487 | 1.342 | 1.204 | 1.079 | 0.96
298.15 K | 1.963 | 1.807 | 1.655 | 1.51 | 1.373 | 1.242 | 1.12 | 1.007 | 0.9
303.15 K | 1.778 | 1.642 | 1.51 | 1.382 | 1.261 | 1.146 | 1.038 | 0.936 | 0.84
308.15 K | 1.626 | 1.503 | 1.384 | 1.271 | 1.165 | 1.063 | 0.966 | 0.873 | 0.786
313.15 K | 1.494 | 1.385 | 1.276 | 1.174 | 1.078 | 0.987 | 0.9 | 0.815 | 0.734
318.15 K | 1.377 | 1.279 | 1.185 | 1.095 | 1.01 | 0.928 | 0.846 | 0.767 | 0.692
323.15 K | 1.27 | 1.184 | 1.102 | 1.021 | 0.943 | 0.867 | 0.793 | 0.722 | 0.652

Cc1cccc2ccccc12 + CCCCCCCCCCCC
323.15 K, 100 kPa
Details | viscosity
x1 = 0.382 | 1.01 mPa·s and 1.02 mPa·s
x1 = 0.699 | 1.22 mPa·s

CC(=O)OCCC1CCCCC1 + CCCCCCCCCCO
viscosity [mPa·s], 101 kPa
Details | 300 K | 310 K | 320 K
x2 = 0.1066 | 2.65 | 2.14 | 1.77
x2 = 0.1534 | 2.74 | 2.2 | 1.82
x2 = 0.2863 | 2.94 | 2.34 | 1.91
x2 = 0.337 | 3.14 | 2.46 | 2.01
x2 = 0.4105 | 3.47 | 2.72 | 2.15
x2 = 0.4983 | 3.91 | 3.02 | 2.41
x2 = 0.5476 | 4.25 | 3.26 | 2.56
x2 = 0.6306 | 4.92 | 3.76 | 2.93
x2 = 0.702 | 5.57 | 4.15 | 3.18
x2 = 0.7382 | 5.93 | 4.4 | 3.37
x2 = 0.8402 | 7.22 | 5.25 | 3.94
x2 = 0.9332 | 8.92 | 6.35 | 4.67

CCCCCCCCCO + CCCCCCCCCCO
Details | viscosity [mPa·s]
293.15 K, 101.33 kPa, x1 = 0.1193 | 14.2
293.15 K, 101.33 kPa, x1 = 0.3048 | 13.76
293.15 K, 101.33 kPa, x1 = 0.5886 | 12.82
293.15 K, 101.33 kPa, x1 = 0.8745 | 12.02
298.15 K, 101.33 kPa, x1 = 0.2583 | 11.34
298.15 K, 101.33 kPa, x1 = 0.6152 | 10.53
298.15 K, 101.33 kPa, x1 = 0.869 | 9.852
298.15 K, 101.8 kPa, x1 = 0.9074 | 9.726
308.15 K, 101.8 kPa, x1 = 0.1082 | 7.899
308.15 K, 101.8 kPa, x1 = 0.3202 | 7.632
308.15 K, 101.8 kPa, x1 = 0.7188 | 7.125
308.15 K, 101.8 kPa, x1 = 0.9074 | 6.876
318.15 K, 101.8 kPa, x1 = 0.1082 | 5.649
318.15 K, 101.8 kPa, x1 = 0.3202 | 5.463
318.15 K, 101.8 kPa, x1 = 0.5233 | 5.336
318.15 K, 101.8 kPa, x1 = 0.7188 | 5.124
318.15 K, 101.8 kPa, x1 = 0.9074 | 4.953

CCCCCCCCCO + CCCCCCCCO
viscosity [mPa·s], 101.8 kPa
Details | x2 = 0.1095 | x2 = 0.3227 | x2 = 0.5251 | x2 = 0.7208 | x2 = 0.9082
298.15 K | 9.3 | 8.885 | 8.493 | 8.137 | 7.796
308.15 K | 6.575 | 6.317 | 6.057 | 5.821 | 5.595
318.15 K | 4.761 | 4.579 | 4.408 | 4.248 | 4.093

CCCCCCCCCO + CCCCCCCO
viscosity [mPa·s], 101.8 kPa
Details | x2 = 0.1184 | x2 = 0.3815 | x2 = 0.5514 | x2 = 0.7089 | x2 = 0.9183
298.15 K | 9.014 | 7.935 | 7.47 | 6.84 | 6.013
308.15 K | 6.366 | 5.68 | 5.353 | 4.96 | 4.408
318.15 K | 4.618 | 4.157 | 3.932 | 3.662 | 3.286

CCCCCC[n+]1ccn(C)c1.O=[N+]([O-])[O-] + CCCCCCCO
Details | viscosity [mPa·s]
308.15 K, 100 kPa, x1 = 0.9381 | 206.5

CCCCCCCCCO + CCCCCCO
viscosity [mPa·s], 101.8 kPa
Details | x2 = 0.1351 | x2 = 0.4186 | x2 = 0.5817 | x2 = 0.7358 | x2 = 0.9282
298.15 K | 8.731 | 7.177 | 6.384 | 5.606 | 4.847
308.15 K | 6.206 | 5.187 | 4.651 | 4.127 | 3.596
318.15 K | 4.51 | 3.821 | 3.453 | 3.093 | 2.717

CC(=O)N(C)C + CCCCCO
viscosity [mPa·s], 100 kPa
Details | 298.15 K | 313.15 K
x1 = 0.0569 | 3.02 | 2.057
x1 = 0.1068 | 2.69 | 1.887
x1 = 0.2009 | 2.246 | 1.634
x1 = 0.3051 | 1.92 | 1.419
x1 = 0.4017 | 1.68 | 1.283
x1 = 0.4989 | 1.498 | 1.159
x1 = 0.6011 | 1.358 | 1.065
x1 = 0.7029 | 1.223 | 0.973
x1 = 0.7966 | 1.121 | 0.895
x1 = 0.8962 | 1.041 | 0.833
x1 = 0.9519 | 0.981 | 0.8

CCC1CCCCC1 + CCCCCO
viscosity [mPa·s], 100 kPa
Details | x2 = 0.1003 | x2 = 0.2013 | x2 = 0.3005 | x2 = 0.4001 | x2 = 0.5004 | x2 = 0.5995 | x2 = 0.7009 | x2 = 0.8003 | x2 = 0.9007
293.15 K | 0.91 | 0.99 | 1.108 | 1.248 | 1.489 | 1.788 | 2.169 | 2.681 | 3.292
298.15 K | 0.845 | 0.915 | 1.024 | 1.177 | 1.339 | 1.613 | 1.948 | 2.339 | 2.862
303.15 K | 0.785 | 0.848 | 0.943 | 1.071 | 1.21 | 1.425 | 1.724 | 2.056 | 2.495
308.15 K | 0.728 | 0.778 | 0.855 | 0.942 | 1.087 | 1.263 | 1.501 | 1.796 | 2.166
313.15 K | 0.682 | 0.73 | 0.801 | 0.882 | 0.998 | 1.156 | 1.337 | 1.602 | 1.92
318.15 K | 0.651 | 0.693 | 0.752 | 0.834 | 0.929 | 1.061 | 1.246 | 1.454 | 1.723
323.15 K | 0.61 | 0.647 | 0.697 | 0.773 | 0.849 | 0.959 | 1.115 | 1.294 | 1.529

CCOC(=O)c1cccc(O)c1 + CCCCCOC(C)=O
Details | viscosity [mPa·s]
298.15 K, 101 kPa, x2 = 0.5 | 1.587

O=[N+]([O-])c1ccccc1O + CCCCCOC(C)=O
Details | viscosity [mPa·s]
298.15 K, 101 kPa, x1 = 0.5 | 1.051

CC1CCCCC1=O (configuration not stated) + CCCCN
303.15 K, 101.33 kPa
Details | viscosity [mPa·s]
x2 = 0.1214 | 1.802
x2 = 0.2017 | 1.906
x2 = 0.3249 | 1.944
x2 = 0.4512 | 1.826
x2 = 0.5524 | 1.715
x2 = 0.6849 | 1.417
x2 = 0.8025 | 1.126
x2 = 0.8938 | 0.855
